Assay results: US8003136B2, “Standardization of botanical products utilizing biological activity as a marker” (priority 2004, dated 2011)
In brackets after ≈: the same amount, converted by molar mass. Like-named read-outs stand apart in the source and are kept apart here.

Columns and labels:
[1] = tested on: Human gastric adenocarcinoma (AGS) cells; test: growth reduction of AGS cells; assay type: cell-based
Source text: Hydrastis leaf extract produced activity slightly less than the control or root extract but contained one fifth of the berberine indicating synergistic and/or additive compounds exist in the leaf. Antineoplastic—Cancer Cell Cultures. This assay measures the ability of Hydrastis to stimulate or arrest metabolic activity of tumor cells. Human gastric adenocarcinoma (AGS), CaCo2 colon cancer cells and normal colon epithelial tissue (ATCC) will be grown in Petri plates on Dulbecco's Modified Eagle Medium (DME) with 4 mM L-glutamine, 4.5 g/l glucose and 10% fetal bovine serum. CRL 7368 Breast Cancer cells and CRL 7367 Fibroblast control cells will be grown in Petri plates on DME with 4 mM L-glutamine, 4.5 g/l glucose, 1.5 g/l sodium bicarbonate and 10% fetal bovine serum. A 95% confluent layer of healthy cells will be divided as follows: surface media will be poured from the plates so that the cells are not dislodged. Ten milliliters of sterile phosphate-buffered saline (PBS) will be added to the plates to rinse the cell layer and then discarded. […] Cellular release by the trypsin is indicated when the cell layer moves when the plate is tilted. Dislodged cells will be added to 15 ml sterile tubes containing 1 ml calf serum. […] The cellular pellet is suspended in 5 ml of medium by mixing. A cell suspension aliquot (0.1 ml) is added to 0.9 ml of 0.4% Trypan Blue and mixed. Cell counts will be made using a hemocytometer charged with the cell suspension. Aliquots of the cell suspension (based on cell count) will be added to Petri plates, then 15 ml of media will be added and the plates incubated at 37° C. in a CO2 incubator. Cells will be checked daily for contamination and morphology. Media will be replaced every 2 to 3 days with fresh medium. The Cell Titer 96® AQueous Non-radioactive Cell proliferation Assay manufactured by Promega, is a colorimetric method used to measure dehydrogenase activity found in metabolically active cells. The MTS is reduced to formazan in the presence of metabolically active cells and the absorbance of formazan is measured spectrophotometrically. Two days post subculture, cells will be rinsed twice with respective media, harvested, and the cell concentration adjusted to 1×10^5 cells/ml. Fifty μl of the cell suspension will be added to the individual wells of a 96-well microtiter plate. Each well will contain 50 μl of the test sample (extract) or standard reference drug. Plates will be incubated for 48 to 72 hr at 37° C. in a CO2 incubator. After incubation, 20 μl of MTS/PMS solution will be added, and the plates incubated for an additional 1 to 4 hr. At the end of the incubation period, absorbance will be recorded at 490 nm.

SA-K2068 = test: MIC against Staph. strain SA-K2068 (MDR efflux pump distinct from NorA); assay type: cell-based
Source text: (§1) Additional preliminary data regarding the potential synergistic activity of Hydrastis leaf on two Staph. strains SA-1199B and SA-K2068 was developed using Hydrastis extracts. […]

SA-1199B = test: MIC against Staph. strain SA-1199B (over expresses NorA MDR efflux protein); assay type: cell-based
Source text: as §1

Giardia = conditions: three divided doses for 6 days; berberine 5 mg/kg/day, metronidazole 10 mg/kg/day; cited from earlier work
[2] = in 2.5 hrs; cited from earlier work
[3] = tested on: COX-2 transcriptional activity in human colon cancer cells; conditions: dose- and time-dependent; cited from earlier work
[4] = hyperlipidemic hamsters; cited from earlier work
[5] = oral, 32 patients, 3 months; cited from earlier work
[6] = tested on: SNU-638 (human stomach adenocarcinoma); conditions: cited from earlier work
E. coli strain ORN178 = test: MIC and MBC against E. coli strain ORN178; assay type: cell-based; conditions: for concentration determined to be non-inhibitory (up to): inhibitor alone
Method: Minimum inhibition concentration (MIC) will be tested in appropriate liquid media in 96-well microtiter plates. Each well contains 5×10^5 CFU/ml of test bacteria, serially diluted extracts and medium. In some cases when chemical solvents are used, it will be tested simultaneously with the test compounds to ensure the absence of antimicrobial activity. Triplicate samples are to be performed.
After 10 min at 37° C., the treated bacterial (or fungal) culture will be diluted and viable colony counts determined. The ability of goldenseal extract in killing test organisms will be elucidated.
Antimicrobial Characteristics of Goldenseal: Antimicrobial activities of SHF NOP certified Hydrastis were evaluated and compared to that of pure chemical berberine sulfate and berberine chloride. […] The synergistic effects of berberine with the known MDR pump inhibitor (reserpine and orthovanadate) as well as Hydrastis root extracts with leaf extracts were also determined. Please refer to the Materials and Methods section for detailed protocol. All extracts were lyophilized and reconstituted in H2O.

hepatoma HepG2 cells = conditions: cited from earlier work
[7] = tested on: HT-1080 (human fibrosarcoma); conditions: cited from earlier work
[8] = tested on: CaCo2, a colon epithelial cell line; test: MTS cell proliferation assay, CaCo2; assay type: cell-based
Method: Another study at Clemson examined the anti-tumor properties of berberine when combined with pump inhibitory characteristics of leaf extracts from Hydrastis. […] Anti-tumor properties block uncontrolled growth, while pump inhibitory properties aid in lowering the dosage of drugs needed to treat the patient.
MTS assay was used to measure cell proliferation.
The MTS is reduced to formazan in the presence of metabolically active cells and the absorbance of formazan is measured spectrophotometrically. Two days post subculture, cells will be rinsed twice with respective media, harvested, and the cell concentration adjusted to 1×10^5 cells/ml. Fifty μl of the cell suspension will be added to the individual wells of a 96-well microtiter plate. Each well will contain 50 μl of the test sample (extract) or standard reference drug. Plates will be incubated for 48 to 72 hr at 37° C. in a CO2 incubator. After incubation, 20 μl of MTS/PMS solution will be added, and the plates incubated for an additional 1 to 4 hr. At the end of the incubation period, absorbance will be recorded at 490 nm.

[9] = tested on: Bifidobacterium adolescentis, Lactobacillus acidophilus, and Lactobacillus casei; conditions: cited from earlier work
murine leukemia L1210 = conditions: cited from earlier work
human tumour HeLa = conditions: cited from earlier work
[10] = tested on: McF7, a breast epithelial cell line; test: MTS cell proliferation assay, McF7; assay type: cell-based
Source text: Another study at Clemson examined the anti-tumor properties of berberine when combined with pump inhibitory characteristics of leaf extracts from Hydrastis. This combination inhibited proliferation of both CaCo2, a colon epithelial cell line, and McF7, a breast epithelial cell line. […] Anti-tumor properties block uncontrolled growth, while pump inhibitory properties aid in lowering the dosage of drugs needed to treat the patient. MTS assay was used to measure cell proliferation. Cell proliferation of McF7 was reduced to 45% of the control when treated with 2% of berberine. […] However, a synergetic effect was observed when combining 0.5% berberine with 1.5% leaf extract. Proliferation of McF7 was reduced to 59% compared to the untreated cells. The Cell Titer 96® AQueous Non-radioactive Cell proliferation Assay manufactured by Promega, is a colorimetric method used to measure dehydrogenase activity found in metabolically active cells. The MTS is reduced to formazan in the presence of metabolically active cells and the absorbance of formazan is measured spectrophotometrically. Two days post subculture, cells will be rinsed twice with respective media, harvested, and the cell concentration adjusted to 1×10^5 cells/ml. Fifty μl of the cell suspension will be added to the individual wells of a 96-well microtiter plate. […] At the end of the incubation period, absorbance will be recorded at 490 nm.

[11] = tested on: Chang (normal) liver cells; conditions: cited from earlier work
transplanted B16 line = conditions: day 16, doses of 5 and 10 mg/kg; cited from earlier work
[12] = tested on: 15 strains of Helicobacter pylori; conditions: Mahady, 2003; cited from earlier work
Streptococcus mutans = conditions: Hwang (2003); cited from earlier work
[13] = tested on: human gastric carcinoma SNU-5 cells; conditions: SNU-5 cell line; cited from earlier work
Giardiasis = conditions: berberine 10 mg/kg/day for 10 days; metronidazole 20 mg/kg/day for 5-7 days; cited from earlier work
[14] = 10 μg/ml of reserpine or 2 mM of orthovanadate supplemented

## COc1ccc2cc3[n+](cc2c1OC)CCc1cc2c(cc1-3)OCO2 [Berberine chloride]
[1]; first volume column, unit μl, berberine chloride control 500 μg/ml
  % growth reduction of AGS cells: .7%
[1]; fourth volume column, unit μl
  % growth reduction of AGS cells: 2.6%
[1]; head printed '0 μl'
  % growth reduction of AGS cells: 4.2%
[1]; head printed '6 μl'
  % growth reduction of AGS cells: 2.1%
[1]; second volume column, unit μl
  % growth reduction of AGS cells: .5%
[1]; third volume column, unit μl
  % growth reduction of AGS cells: 3.7%

## O=C(O)c1cn(C2CC2)c2cc(N3CCNCC3)c(F)cc2c1=O [Ciprofloxacin]
SA-K2068; read-out: SA K2068 MIC, +312.5 μg/mL leaf ext.
  MIC: 0.5 µg/mL
SA-K2068; read-out: SA K2068 MIC, +625 μg/mL leaf ext.
  MIC: 0.5 µg/mL
SA-K2068; read-out: SA K2068 MIC, +5~20 μg/mL Reserpine
  MIC: 0.5 µg/mL
SA-K2068; read-out: SA K2068 MIC, agent alone
  MIC: 4 µg/mL
SA-1199B; +312.5 μg/mL leaf ext.
  MIC: 2 µg/mL
SA-1199B; +625 μg/mL leaf ext.
  MIC: 2 µg/mL
SA-1199B; +1250 μg/mL leaf ext.
  MIC: < 0.5 µg/mL
SA-1199B; +5~20 μg/mL Reserpine
  MIC: 1 µg/mL
SA-1199B; agent alone
  MIC: 8 µg/mL

## COc1ccc2cc3[n+](cc2c1OC)CCc1cc2c(cc1-3)OCO2 [berberine]
Giardia
  subjects Giardia-free upon stool analysis: 68%
  subjects asymptomatic / resolution of symptoms: 48%
[2]
  absorbed in the intestine: less than 5%
[3]
  concentrations that inhibit COX-2 transcriptional activity: higher than 0.3 microM
[4]
  increase in hepatic LDLR mRNA: 3.5 fold
  increase in hepatic LDLR protein: 2.6 fold
  reduction of LDL-cholesterol: 42%
  reduction of serum cholesterol: 40%
[5]
  reduction of LDL-cholesterol: 25%
  reduction of serum cholesterol: 29%
  reduction of triglycerides: 35%
[6]
  IC50: 3.4 µg/mL
E. coli strain ORN178; [14]
  MBC of berberine reduced to: ¼
  MIC of berberine reduced by: half
E. coli strain ORN178; Escherichia coli, ORN178, berberine alone, read-out: MBC (μg/ml berberine)
  MBC: 125 µg/mL
E. coli strain ORN178; Escherichia coli, ORN178, berberine alone, read-out: MIC (μg/ml berberine)
  MIC: 62.5 µg/mL
Hepatoma HepG2 cells
  cytotoxicity: significant cytotoxicity
[7]
  IC50: 3.2 µg/mL
[8]; combination of 0.5% berberine and 0.5% leaf extract
  cell proliferation rate, CaCo2: 48%
[8]; treated with 0.5%
  cell proliferation, CaCo2: 75%
[9]
  inhibition of "friendly" bacteria: weak or no inhibition
Murine leukemia L1210; Jantova, 2003
  IC50: less than 4 microg mL(−1)
Murine leukemia L1210; Kettman, 2004
  IC50: less than 4 microg/ml
Human tumour HeLa; Jantova, 2003
  IC50: less than 4 microg mL(−1)
Human tumour HeLa; Kettman, 2004
  IC50: less than 4 microg/ml
[10]; 0.5% berberine combined with 1.5% leaf extract
  Proliferation of McF7 compared to the untreated cells: 59%
[10]; treated at a concentration of 2%
  Cell proliferation of McF7, % of the control: 45%
[11]
  cytotoxicity: ineffective
Transplanted B16 line
  tumor volume: significant reduction
[12]
  MIC50: 12.5 µg/mL
Streptococcus mutans
  Minimum Inhibitory Concentration (MIC): 125 µg/mL
[13]
  IC50: 48 µM
Giardiasis
  negative stool specimens after 10 days: Ninety
  remained negative one month later: 83%

## COc1ccc2c(c1OC)C(=O)O[C@@H]2[C@H]1c2cc3c(cc2CCN1C)OCO3 [beta-hydrastine]
[12]
  MIC50: 100.0 µg/mL (≈ 261 µM)

## Cc1ncc([N+](=O)[O-])n1CCO [metronidazole]
Giardia
  subjects Giardia-free upon stool analysis: All
  subjects asymptomatic / resolution of symptoms: 33%
Giardiasis
  negative stool specimens after 10 days: 95%
  remained negative one month later: 90%

## [O]=[V]([O-])([O-])[O-] [orthovanadate]
E. coli strain ORN178
  concentration determined to be non-inhibitory (up to): ≤ 4 mM

## COC(=O)[C@H]1[C@H]2C[C@@H]3c4[nH]c5cc(OC)ccc5c4CCN3C[C@H]2C[C@@H](OC(=O)c2cc(OC)c(OC)c(OC)c2)[C@@H]1OC [reserpine]
E. coli strain ORN178
  concentration determined to be non-inhibitory (up to): Up to 5000 μg/ml
